Measured values from patent publication EP2966448B1, “METHOD FOR THE PREDICTION OR PROGNOSIS OF THE RESPONSE OF A HUMAN SUBJECT SUFFERING FROM CANCER TO TREATMENT WITH AN ANTAGONIST OF THE NK1 RECEPTOR” (priority 2013, dated 2014).
Where two headings read alike, the source gives them in different places.

How the values were obtained:
[1] = system: Ovarian carcinoma (Adenocarcinoma); assay: Inhibition of primary tumor cell cultures vs Kras mutation (Example 2); type: cell-based, human; conditions: Homo sapiens, 100 micromolar, read-out: Percentage of inhibition of cell cultures
Description: (§1) Cell cultures. […] Briefly, small pieces of the tumors were digested into a hyaluronidase solution (Sigma-Aldrich, USA) at a concentration of 1 mg/ml during 15 minutes at 37°C, and then they were treated with 6 mg/ml of collagenase type IV (Invitrogen) during 2 hours at 37°C. Consecutively, cells were washed, and resuspended in the DMEM culture medium with high concentration of glucose (Dulbecco's Modified Eagle's Medium, Invitrogen) supplemented with 1% of antibiotics-antimycotics (Invitrogen) and with 1% of sodium pyruvate (Invitrogen), and the cells were seeded in culture slides at a concentration of 10.000 cells per square centimeter. When cells reached confluence, the adherent cells were separated using sterile trypsin at 0,5% (Invitrogen) and they were used among passages 3 and 9. For the assays shown next, tumor cells were seeded on slides at a concentration of 25.000 cells per well. A total of 6 wells containing the tumor cells were used as survival control. […] All the cultures were kept during 48 hours and later on recollected for their analysis.
(§2) In each case the presence or not of mutations in K-ras gene was determined.
(§3) To determine the existence of mutations in the K-ras gene DNA from cancer tumor cells was extracted from samples obtained from the different cancer tumor cells, using DNA extraction kits from Takara (Madison, WI, US) or Ambion (Huntingdon, Cambridgeshire, United Kingdom), following the manufacturer's instructions, and as it has been previously published (Di Fiore F, et al. 2007). Consecutively it was analyzed by sequencing the exon 2 of the KRAS gene, , by means of PCR amplification from previously extracted cancer tumor DNA, using the following sense primer (SEQ ID NO. 15): 5'-[sequence]-3' and anti-sense primer (SEQ ID NO. 16): 5'-[sequence]-3'. After the purification using the Qiagen extraction kit, the PCR products were sequenced using the Big Dye Terminator Kit V3.1 (Applied Biosystems, Foster City, CA, U.S.) and an ABI Prism 377 or 3100 DNA sequencer (Applied Biosystems). The presence of a heterozygous mutation in the KRAS gene in cancer tumor cells of the cultures was defined as the appearance of a mutant peak of a height of at least a third of the wild type. All the sequence analysis were executed at least twice in two independent PCR.
(§4) The antibody against NK1 receptor (Table 16) was used at 1/50 concentration. The percentages of inhibition are expressed in percentage of variation in relation to control ± standard deviation.

[2] = system: Undifferentiated Pleomorphic Sarcoma (malignant fibrous histiocytoma grade 3); assay: as above; type: cell-based, human; conditions: Homo sapiens, 100 micromolar, read-out: Percentage of inhibition of cell cultures
Description: (§5) Cell cultures. To obtain tumor cells from human primary tumors we used the method described in De Bari et al. (De Bari et al. 2001). Briefly, small pieces of the tumors were digested into a hyaluronidase solution (Sigma-Aldrich, USA) at a concentration of 1 mg/ml during 15 minutes at 37°C, and then they were treated with 6 mg/ml of collagenase type IV (Invitrogen) during 2 hours at 37°C. Consecutively, cells were washed, and resuspended in the DMEM culture medium with high concentration of glucose (Dulbecco's Modified Eagle's Medium, Invitrogen) supplemented with 1% of antibiotics-antimycotics (Invitrogen) and with 1% of sodium pyruvate (Invitrogen), and the cells were seeded in culture slides at a concentration of 10.000 cells per square centimeter. When cells reached confluence, the adherent cells were separated using sterile trypsin at 0,5% (Invitrogen) and they were used among passages 3 and 9. For the assays shown next, tumor cells were seeded on slides at a concentration of 25.000 cells per well. A total of 6 wells containing the tumor cells were used as survival control. […] All the cultures were kept during 48 hours and later on recollected for their analysis.
as §2, §3
The percentages of inhibition are expressed in percentage of variation in relation to control ± standard deviation.

Gastric carcinoma = assay: Inhibition of primary tumor cell cultures (48 hours) vs NK1 receptor immunostaining (Example 1); type: cell-based; conditions: Homo sapiens, 1 micromolar, read-out: Percentage of inhibition of cell cultures
Description: as §5
Immunohistochemistry techniques. The presence of NK1 receptors was also analyzed using immunohistochemistry techniques. Briefly, a sample of each of the cultures of the cell lines used in the present invention, was centrifuged (5 minutes at 1.500 rpm) and the pellet obtained was dehydrated using increasing concentrations of ethanol and, finally, xylol. Then, said dehydrated samples were embedded in paraffin, creating a block of cells. Such paraffin blocks were cut with a microtome at 5 microns thickness, and were placed on microscope slides adequate to perform immunohistochemistry techniques. Consecutively, they were de-paraffinized by immersing them in xylol, to be finally hydrated using a solution containing decreasing concentrations of ethanol, and finally submerged them into water. […] After this, the samples were left to cool down at room temperature for 10 minutes. The endogenous peroxidase activity was blocked with 3% peroxide of hydrogen for 30 minutes at room temperature. After washing the samples with 0.05 M of Tris buffer, they were incubated with 10% non-immune pork serum at for 30 minutes at room temperature. To analyze the expression of NK1 receptors, the cellular samples were incubated in the presence of anti-NK1 antibodies (S8305, Sigma-Aldrich) diluted 1:1000, overnight at 4°C. Afterwards, the samples were washed in Tris buffer 0.05 M at room temperature. The next step was the addition of Envision System-HRP (Dako) reagents for 30 minutes at room temperature. Then, the samples were washed again in Tris buffer 0.05 M and the immunoreactivity was visualized through light microscopy with a chromogenic solution containing 3,3'-Diaminobenzidine (DAB+; Dako, USA). To differentiate the cell nuclei, they were slightly stained with hematoxylin. As negative control, it was used samples not incubated with the primary antibody anti-NK1, which was replaced by non-immune serum. All the samples were evaluated.
To value the immunostaining in each of the cases six cuts were performed to be analyzed by the immunohistochemistry technique. In each of the six cuts, it was counted cells in 20 fields (magnification 400x) using an Olympus microscope (model CX31). In each field it was counted the total number of cells and the number of cells presenting immunostaining, calculating afterwards the percentage of cells which presented immunostaining.

[3] = system: human primary tumor cells; assay: Inhibition of primary tumor cell cultures vs amplification of the gene encoding the NK1 receptor (Example 6; tumor type per table line); type: cell-based; conditions: for Percentage of inhibition of cell cultures: 100 micromolar
Description: as §1
The presence or absence of the amplification of the gene encoding for the NK1 receptor was determined, and then the cells were cultured in the presence of several antagonists of the NK1 receptor.
For each case, the presence or absence of amplification of the gene encoding for the NK1 receptor was determined.
In order to determine the presence of the amplification (increase in the number of copies) of the gene encoding the NK1 receptor (TAC1R), it was used the comparative genomic hybridization technique (CGH Array). Firstly genomic DNA was extracted from each case. Later, it was performed the marking and hybridization of the DNA of each sample together with DNA of a commercial reference without genomic alterations (from masculine or feminine sex, depending on the gender of the patient from whom the samples were obtained). The Array is Sureprint G3 Human CGH Microarray from the company Agilent was used, with an average separation between probes of 5.3Kb and 4.6Kb for the genes RefSeq. The reading of the microarray was done with the DNA Microarray Scanner G2565CA from Agilent, at a resolution of 3 µm. The analysis of the results was performed with the software Cytogenomics v 2.0.6.0 from Agilent with ADM-2: 6.0; Centralization: ON (Threshold: 6.0, Bin size: 10); Fuzzy zero: ON; Aberration filters: ON (minProbes=5 and minAvgAbsLopRatio= 0,5); Feature Level Filters : ON. The genomic coordinates are coincident with the NCBI36genome (hg18). Cases were distributed in two groups: Group I for those cases without the amplification of the gene encoding the NK1 receptor (locus 2p13.1-p12), and Group II for those cases with amplification of the gene encoding the NK1receptor (locus 2p13.1-p12).
The antibody against NK1 receptor (Table 36) was used at 1/50 concentration. The percentages of inhibition are expressed in percentages of variation in relation to control ± standard deviation.

[4] = system: Gastric carcinoma (Adenocarcinoma); assay: Inhibition of primary tumor cell cultures vs Kras mutation (Example 2); type: cell-based, human; conditions: Homo sapiens, 100 micromolar, read-out: Percentage of inhibition of cell cultures
Description: as §1, §2, §3, §4

[5] = system: Pancreatic carcinoma (Adenocarcinoma); assay: as above; type: cell-based, human; conditions: Homo sapiens, 100 micromolar, read-out: Percentage of inhibition of cell cultures
Description: as §1, §2, §3, §4

[6] = system: human primary tumor cells; assay: Inhibition of primary tumor cell cultures vs low or high expression of the truncated form of NK1 receptor (Example 5; tumor type per table line); type: cell-based; conditions: 100 micromolar
[7] = Cases with Kras non-mutated (wild type)

`CC(=O)N1CCN([C@H]2CCN(C(=O)N(C)[C@H](C)c3cc(C(F)(F)F)cc(C(F)(F)F)c3)[C@@H](c3ccc(F)cc3C)C2)CC1` [Casopitant] gave an inhibition at 100 µM ([1]; Cases with Kras mutated) of 29 ± 4%, an inhibition at 100 µM [1, 7] of 97 ± 6% and an inhibition at 100 µM ([2]; Cases with Kras mutated) of 26 ± 5%. The inhibition at 100 µM [2, 7] was 95 ± 5%, the inhibition at 1 µM (Gastric carcinoma; NK1 receptor immunostaining Group 1 (less than 20% of the cells)) was 12 ± 4% and the inhibition at 1 µM (Gastric carcinoma; NK1 receptor immunostaining Group 2 (20-80% of the cells)) was 46 ± 2%. For the same compound, the inhibition at 1 µM (Gastric carcinoma; NK1 receptor immunostaining Group 3 (more than 80% of the cells)) was 90 ± 2%, the inhibition at 1 µM (Gastric carcinoma; NK1 receptor immunostaining Intensity grade 1) was 31 ± 3% and the inhibition at 1 µM (Gastric carcinoma; NK1 receptor immunostaining Intensity grade 2) was 53 ± 3%. For the same compound, the inhibition at 1 µM (Gastric carcinoma; NK1 receptor immunostaining Intensity grade 3) was 91 ± 3%, the “Percentage of inhibition of cell cultures” value ([3]; Breast carcinoma (ductal adenocarcinoma), Cases with amplification of the gene that encodes for the NK1 receptor) was 94±7 percentage and the “Percentage of inhibition of cell cultures” value ([3]; Breast carcinoma (ductal adenocarcinoma), Cases without amplification of the gene that encodes for the NK1 receptor) was 23±8 percentage. For the same compound, the “Percentage of inhibition of cell cultures” value ([3]; Burkitt Lymphoma, Cases with amplification of the gene that encodes for the NK1 receptor) was 93±6 percentage, the “Percentage of inhibition of cell cultures” value ([3]; Burkitt Lymphoma, Cases without amplification of the gene that encodes for the NK1 receptor) was 24±5 percentage and the “Percentage of inhibition of cell cultures” value ([3]; Carcinoma of the uterine cervix (Squamous cell carcinoma), Cases with amplification of the gene that encodes for the NK1 receptor) was 94±6 percentage. For the same compound, the “Percentage of inhibition of cell cultures” value ([3]; Carcinoma of the uterine cervix (Squamous cell carcinoma), Cases without amplification of the gene that encodes for the NK1 receptor) was 23±6 percentage, the “Percentage of inhibition of cell cultures” value ([3]; Colon carcinoma (Adenocarcinoma), Cases with amplification of the gene that encodes for the NK1 receptor) was 96±4 percentage and the “Percentage of inhibition of cell cultures” value ([3]; Colon carcinoma (Adenocarcinoma), Cases without amplification of the gene that encodes for the NK1 receptor) was 24±4 percentage. For the same compound, the “Percentage of inhibition of cell cultures” value ([3]; Endometrium carcinoma, Cases with amplification of the gene that encodes for the NK1 receptor) was 96±5 percentage, the “Percentage of inhibition of cell cultures” value ([3]; Endometrium carcinoma, Cases without amplification of the gene that encodes for the NK1 receptor) was 24±4 percentage and the “Percentage of inhibition of cell cultures” value ([3]; Gastric carcinoma (Adenocarcinoma), Cases with amplification of the gene that encodes for the NK1 receptor) was 95±5 percentage. For the same compound, the “Percentage of inhibition of cell cultures” value ([3]; Gastric carcinoma (Adenocarcinoma), Cases without amplification of the gene that encodes for the NK1 receptor) was 23±5 percentage, the “Percentage of inhibition of cell cultures” value ([3]; Glioma (astrocytoma), Cases with amplification of the gene that encodes for the NK1 receptor) was 95±4 percentage and the “Percentage of inhibition of cell cultures” value ([3]; Glioma (astrocytoma), Cases without amplification of the gene that encodes for the NK1 receptor) was 24±6 percentage. The “Percentage of inhibition of cell cultures” value ([3]; Lung carcinoma (non small cell lung carcinoma), Cases with amplification of the gene that encodes for the NK1 receptor) was 96±5 percentage, the “Percentage of inhibition of cell cultures” value ([3]; Lung carcinoma (non small cell lung carcinoma), Cases without amplification of the gene that encodes for the NK1 receptor) was 26±6 percentage and the “Percentage of inhibition of cell cultures” value ([3]; Lung carcinoma (small cell lung carcinoma), Cases with amplification of the gene that encodes for the NK1 receptor) was 95±4 percentage. The “Percentage of inhibition of cell cultures” value ([3]; Lung carcinoma (small cell lung carcinoma), Cases without amplification of the gene that encodes for the NK1 receptor) was 24±4 percentage, the “Percentage of inhibition of cell cultures” value ([3]; Melanoma (Nodular Melanoma), Cases with amplification of the gene that encodes for the NK1 receptor) was 97±5 percentage and the “Percentage of inhibition of cell cultures” value ([3]; Melanoma (Nodular Melanoma), Cases without amplification of the gene that encodes for the NK1 receptor) was 26±4 percentage. For the same compound, the “Percentage of inhibition of cell cultures” value ([3]; Non Hodgkin Lymphoma B (diffuse B cell lymphoma), Cases with amplification of the gene that encodes for the NK1 receptor) was 95±7 percentage, the “Percentage of inhibition of cell cultures” value ([3]; Non Hodgkin Lymphoma B (diffuse B cell lymphoma), Cases without amplification of the gene that encodes for the NK1 receptor) was 27±5 percentage and the “Percentage of inhibition of cell cultures” value ([3]; Non Hodgkin Lymphoma T (diffuse T cell lymphoma), Cases with amplification of the gene that encodes for the NK1 receptor) was 95±5 percentage. The “Percentage of inhibition of cell cultures” value ([3]; Non Hodgkin Lymphoma T (diffuse T cell lymphoma), Cases without amplification of the gene that encodes for the NK1 receptor) was 28±7 percentage, the “Percentage of inhibition of cell cultures” value ([3]; Ovarian carcinoma(Adenocarcinoma), Cases with amplification of the gene that encodes for the NK1 receptor) was 95±4 percentage and the “Percentage of inhibition of cell cultures” value ([3]; Ovarian carcinoma(Adenocarcinoma), Cases without amplification of the gene that encodes for the NK1 receptor) was 24±5 percentage. For the same compound, the “Percentage of inhibition of cell cultures” value ([3]; Pancreatic carcinoma (Adenocarcinoma), Cases with amplification of the gene that encodes for the NK1 receptor) was 97±5 percentage, the “Percentage of inhibition of cell cultures” value ([3]; Pancreatic carcinoma (Adenocarcinoma), Cases without amplification of the gene that encodes for the NK1 receptor) was 26±6 percentage and the “Percentage of inhibition of cell cultures” value ([3]; Prostate carcinoma, Cases with amplification of the gene that encodes for the NK1 receptor) was 96±5 percentage. For the same compound, the “Percentage of inhibition of cell cultures” value ([3]; Prostate carcinoma, Cases without amplification of the gene that encodes for the NK1 receptor) was 27±5 percentage, the “Percentage of inhibition of cell cultures” value ([3]; Renal cell carcinoma (clear cell renal cell carcinoma), Cases with amplification of the gene that encodes for the NK1 receptor) was 93±6 percentage and the “Percentage of inhibition of cell cultures” value ([3]; Renal cell carcinoma (clear cell renal cell carcinoma), Cases without amplification of the gene that encodes for the NK1 receptor) was 27±7 percentage. The “Percentage of inhibition of cell cultures” value ([3]; Thyroid carcinoma (follicular carcinoma), Cases with amplification of the gene that encodes for the NK1 receptor) was 94±6 percentage, the “Percentage of inhibition of cell cultures” value ([3]; Thyroid carcinoma (follicular carcinoma), Cases without amplification of the gene that encodes for the NK1 receptor) was 26±5 percentage and the “Percentage of inhibition of cell cultures” value ([3]; Thyroid carcinoma (papillary carcinoma), Cases with amplification of the gene that encodes for the NK1 receptor) was 96±5 percentage. The “Percentage of inhibition of cell cultures” value ([3]; Thyroid carcinoma (papillary carcinoma), Cases without amplification of the gene that encodes for the NK1 receptor) was 24±7 percentage, the “Percentage of inhibition of cell cultures” value ([3]; Undifferentiated Pleomorphic Sarcoma (malignant fibrous histiocytoma grade 3), Cases with amplification of the gene that encodes for the NK1 receptor) was 96±6 percentage and the “Percentage of inhibition of cell cultures” value ([3]; Undifferentiated Pleomorphic Sarcoma (malignant fibrous histiocytoma grade 3), Cases without amplification of the gene that encodes for the NK1 receptor) was 25±7 percentage. The “Percentage of inhibition of cell cultures” value ([3]; Urinary bladder carcinoma (transitional cell carcinoma), Cases with amplification of the gene that encodes for the NK1 receptor) was 97±3 percentage, the “Percentage of inhibition of cell cultures” value ([3]; Urinary bladder carcinoma (transitional cell carcinoma), Cases without amplification of the gene that encodes for the NK1 receptor) was 26±4 percentage and the “inhibition of cell proliferation” value ([3]; cancer cell cultures which show amplification in the genomic region encoding the NK1 receptor, compared, non-peptidic antagonists 100 micromolar, antibody 1/50) was “higher inhibition”. For the same compound, the inhibition at 100 µM ([4]; Cases with Kras mutated) was 25 ± 5%, the inhibition at 100 µM [4, 7] was 95 ± 5% and the inhibition at 100 µM ([5]; Cases with Kras mutated) was 27 ± 3%. The inhibition at 100 µM [5, 7] was 93 ± 4%, the “Percentage of inhibition of cell cultures” value ([6]; Glioma (astrocytoma), Cases with high expression of the truncated form of NK1 receptor (Group B)) was 95±7 percentage and the “Percentage of inhibition of cell cultures” value ([6]; Glioma (astrocytoma), Cases with low expression of the truncated form of NK1 receptor (Group A)) was 24±5 percentage. The “Percentage of inhibition of cell cultures” value ([6]; Lung carcinoma (non small cell lung carcinoma), Cases with high expression of the truncated form of NK1 receptor (Group B)) was 95±6 percentage, the “Percentage of inhibition of cell cultures” value ([6]; Lung carcinoma (non small cell lung carcinoma), Cases with low expression of the truncated form of NK1 receptor (Group A)) was 25±4 percentage and the “Percentage of inhibition of cell cultures” value ([6]; Melanoma (Nodular Melanoma), Cases with high expression of the truncated form of NK1 receptor (Group B)) was 96±6 percentage. For the same compound, the “Percentage of inhibition of cell cultures” value ([6]; Melanoma (Nodular Melanoma), Cases with low expression of the truncated form of NK1 receptor (Group A)) was 23±5 percentage, the “Percentage of inhibition of cell cultures” value ([6]; Non Hodgkin Lymphoma B (diffuse B cell lymphoma), Cases with high expression of the truncated form of NK1 receptor (Group B)) was 97±4 percentage and the “Percentage of inhibition of cell cultures” value ([6]; Non Hodgkin Lymphoma B (diffuse B cell lymphoma), Cases with low expression of the truncated form of NK1 receptor (Group A)) was 24±3 percentage. The “Percentage of inhibition of cell cultures” value ([6]; Non Hodgkin Lymphoma T (diffuse T cell lymphoma), Cases with high expression of the truncated form of NK1 receptor (Group B)) was 98±3 percentage, the “Percentage of inhibition of cell cultures” value ([6]; Non Hodgkin Lymphoma T (diffuse T cell lymphoma), Cases with low expression of the truncated form of NK1 receptor (Group A)) was 23±4 percentage and the “Percentage of inhibition of cell cultures” value ([6]; Prostate carcinoma, Cases with high expression of the truncated form of NK1 receptor (Group B)) was 94±4 percentage.
